What was measured:
eotaxin-2 (CCL24) = target: T1, eotaxin-2 (CCL24) (Homo sapiens, UniProt O00175); experiment: BIAcore: inhibition of Eotaxin-2 binding to immobilized heparin; details: % relative to heparin concentration required to inhibit chemokine binding by 50%; heparin set at 100%
T1 construct: host or cells: E. coli
T1 sequence (O00175 27-119): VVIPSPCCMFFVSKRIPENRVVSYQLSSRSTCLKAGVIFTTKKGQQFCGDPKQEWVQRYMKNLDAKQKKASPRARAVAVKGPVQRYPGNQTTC
Excerpt: (§1) The optical phenomenon of surface plasmon resonance is used to monitor physical interactions between molecules. Passing a solution of a potential protein ligand (e.g. IL-4, IL-5, eotaxin-1, eotaxin-2, IL-8 or MCP-1) over a sensor surface to which a target (e.g. heparin) is coupled monitors the real-time binding of protein ligands to the immobilized target. Detection is achieved by measuring refractive index changes very close to the sensor surface. When the refractive index is altered, the angle at which plasmon resonance occurs changes and this change directly correlates with the amount of protein interacting with the surface. A BIAcore 2000 is conveniently used. […]
(§2) Biotinylated heparin is immobilized on the biosensor chip. […] Solutions containing potential protein ligands of interest are injected over the sensor chip surface, and the binding is measured in real time (Fernig, In: Proteoglycan protocols, Ed. R. V. Iozzo, Humana Press, Totowa, N.J., USA, 2001). Baculovirus expressed recombinant human IL-4 (rhIL-4) and baculovirus expressed recombinant human IL-5 (rhIL-5) readily bind to heparin immobilized by this method (see PCT/AU2005/000551). […] Similarly, recombinant human eotaxin-1 (CCL11) expressed in E. coli binds readily to immobilized heparin and binding is specific as there is little eotaxin binding to sensor chips lacking heparin (see 30544601 PCT glycan151). […]

[1] = target: T2, recombinant human IL-4 (rhIL-4) (Homo sapiens, UniProt P05112); experiment: BIAcore: inhibition of IL-4 binding to a heparin chip; details: End point heparin
T2 construct: host or cells: baculovirus expression system
T2 sequence (P05112 25-153): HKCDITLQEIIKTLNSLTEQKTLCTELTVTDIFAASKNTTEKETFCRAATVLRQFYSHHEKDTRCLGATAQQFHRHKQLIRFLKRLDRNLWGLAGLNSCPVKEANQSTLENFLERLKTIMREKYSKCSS
Excerpt: as §1, §2

[2] = target: T3, recombinant human IL-5 (rhIL-5) (Homo sapiens, UniProt P05113); experiment: BIAcore: inhibition of IL-5 binding to a heparin chip; details: Biotin-heparin
T3 construct: host or cells: baculovirus expression system
T3 sequence (P05113 20-134): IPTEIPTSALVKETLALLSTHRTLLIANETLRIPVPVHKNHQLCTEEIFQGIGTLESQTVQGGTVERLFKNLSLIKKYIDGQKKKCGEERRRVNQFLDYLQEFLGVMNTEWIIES
Excerpt: as §1, §2

Human leukocyte elastase = target: T4, Human leukocyte elastase (Homo sapiens, UniProt P08246); experiment: Human leukocyte elastase fluorogenic substrate assay; type: biochemical; details: elastase 5 nM/well, MeOSuc-Ala-Ala-Pro-Val-amido-methylcoumarin 20 μM/well, pH 7.4, 37° C., 60 minutes; read-out: Inhibition of Elastase activity IC50
T4 sequence (P08246 30-267): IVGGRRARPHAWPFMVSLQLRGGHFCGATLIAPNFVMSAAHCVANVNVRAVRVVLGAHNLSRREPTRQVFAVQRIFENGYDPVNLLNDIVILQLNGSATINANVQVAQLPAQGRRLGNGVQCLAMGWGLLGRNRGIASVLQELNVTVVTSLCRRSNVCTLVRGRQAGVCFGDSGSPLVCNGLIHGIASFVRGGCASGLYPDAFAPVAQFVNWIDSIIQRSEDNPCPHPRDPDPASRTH
Description: Elastase is a protein that is a potential target for the treatment of COPD. Elastase assays were performed in 96-well plastic microplates for easy quantification by the fluorescent plate reader. Human leukocyte elastase (5 nM/well) was incubated in the presence ofrabsence of sulfated polysaccharides, with the fluorogenic substrate MeOSuc-Ala-Ala-Pro-Val-amido-methylcoumarin (20 μM/well) in a sodium phosphate buffer, pH 7.4. The mixture was incubated at 37° C. for 60 minutes before the reaction was stopped by the addition of 10 μL/well of […] acetic acid and the mixture transferred to a 96-well microplate with fluorescence being measured using an excitation wavelength of 355 nm and an emission wavelength of 460 nm. Various concentrations of inhibitors were used to allow the calculation of the concentration of anionic oligosaccharide conjugate required to inhibit enzyme activity by 50% (IC50). […] The linked xylopentaose series were not very effective inhibitors of elastase activity. In this assay heparin has an IC50 of approximately 200 nM (Table 6).

MCP-1 (CCL2) = target: T5, MCP-1 (CCL2) (Homo sapiens, UniProt P13500); experiment: BIAcore: inhibition of MCP-1 binding to immobilized heparin; details: % relative to heparin concentration required to inhibit chemokine binding by 50%; heparin set at 100%
T5 construct: host or cells: E. coli
T5 sequence (P13500 24-99): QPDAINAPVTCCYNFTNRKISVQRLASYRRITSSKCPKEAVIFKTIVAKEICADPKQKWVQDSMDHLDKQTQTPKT
Excerpt: as §1, §2

IL-8 (CXCL8) = target: T6, IL-8 (CXCL8) (Homo sapiens, UniProt P10145); experiment: BIAcore: inhibition of IL-8 binding to immobilized heparin; details: % relative to heparin concentration required to inhibit chemokine binding by 50%; heparin set at 100%
T6 construct: host or cells: E. coli
T6 sequence (P10145 21-99): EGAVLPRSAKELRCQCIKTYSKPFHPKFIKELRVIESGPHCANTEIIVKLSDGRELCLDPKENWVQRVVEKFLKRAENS
Excerpt: as §1, §2

Concentration for 50% inhibition of Eotaxin-2 binding to heparin chip, as % of heparin's (eotaxin-2 (CCL24)): 100%
IC50 [1]: 3300 nM
IC50 [2]: 37 nM
IC50 (Human leukocyte elastase): ~200 nM
IC50 relative to heparin (% of heparin IC50) (MCP-1 (CCL2)): 100%
Concentration for 50% inhibition of chemokine binding relative to heparin (IL-8 (CXCL8)): 100%
Substance: Heparin

Reference: patent publication US8597632B2, “Anionic oligosaccharide conjugates” (Glycan Biosciences LLC, priority 2008, dated 2013)
